Reference: patent US20210177828A1, “TAM FAMILY KINASE /AND CSF1R KINASE INHIBITOR AND USE THEREOF” (Nanjing Transthera Biosciences Co., Ltd., priority 2018, published 2021)

Key:
Mer (h) = target: T1, Mer (h) (Homo sapiens, UniProt Q12866); assay: Enzymatic activity assay, Mer (h), [γ-33P]-ATP filter assay; type: biochemical; conditions: 10 μM ATP, 40 min room temperature; read-out: Inhibitory activity IC50 Mer(h)
T1 sequence (Q12866 21-999): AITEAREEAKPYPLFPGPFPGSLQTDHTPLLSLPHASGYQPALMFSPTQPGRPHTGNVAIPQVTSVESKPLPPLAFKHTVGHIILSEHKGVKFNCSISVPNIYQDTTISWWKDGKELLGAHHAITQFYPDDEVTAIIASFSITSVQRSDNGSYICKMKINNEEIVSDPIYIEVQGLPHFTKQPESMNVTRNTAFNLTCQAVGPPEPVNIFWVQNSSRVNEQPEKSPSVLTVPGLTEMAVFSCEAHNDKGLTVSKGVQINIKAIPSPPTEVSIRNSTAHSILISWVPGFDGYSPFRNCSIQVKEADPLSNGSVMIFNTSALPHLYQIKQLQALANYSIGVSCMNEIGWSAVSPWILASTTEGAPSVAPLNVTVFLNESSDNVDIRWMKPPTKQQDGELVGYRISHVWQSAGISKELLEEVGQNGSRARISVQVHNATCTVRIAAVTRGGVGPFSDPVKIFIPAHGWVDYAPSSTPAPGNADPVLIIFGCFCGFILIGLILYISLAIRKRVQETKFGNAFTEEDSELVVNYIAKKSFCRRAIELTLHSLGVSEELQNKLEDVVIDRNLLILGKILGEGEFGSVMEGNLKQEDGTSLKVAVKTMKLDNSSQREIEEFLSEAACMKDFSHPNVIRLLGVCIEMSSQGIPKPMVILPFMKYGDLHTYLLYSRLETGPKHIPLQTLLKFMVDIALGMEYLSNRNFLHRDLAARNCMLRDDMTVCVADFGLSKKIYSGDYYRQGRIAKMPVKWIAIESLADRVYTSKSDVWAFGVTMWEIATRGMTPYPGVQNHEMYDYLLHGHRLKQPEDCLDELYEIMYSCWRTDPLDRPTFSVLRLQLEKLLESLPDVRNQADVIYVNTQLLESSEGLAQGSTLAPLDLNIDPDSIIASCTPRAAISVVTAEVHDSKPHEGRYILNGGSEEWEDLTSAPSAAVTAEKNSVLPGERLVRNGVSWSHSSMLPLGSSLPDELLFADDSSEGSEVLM
Procedure: (§1) Compounds were each dissolved in 100% DMSO to prepare stock solutions with a maximum concentration of 500 μM.
(§2) Compound working solutions (50×) were prepared by diluting a compound stock solution to a final concentration of 500, 150, 50, 15, 5, 1.5, 0.5, 0.15 and 0.05 μM.
An enzyme solution with a final concentration of 3.1 nM was prepared by dissolving Mer (h) enzyme in a mixture of 8 mM MOPS (pH 7.0), 0.2 mM EDTA, 30 mM NaCl and 250 μM GGMEDIYFEFMGGKKK. A Mg/ATP mixture of 10 mM magnesium acetate and 10 μM [γ-^33P]-ATP was used to activate the enzymatic reaction.
(§3) A compound working solution was added to a 384-well plate, with final concentrations of 10,000, 3,000, 1,000, 300, 100, 30, 10, 3 and 1 nM, and then different enzymatic reaction solutions prepared according to the above conditions were added. The reaction solutions were incubated at room temperature for 40 min, and then 0.5% phosphoric acid solutions were added to terminate the reaction. 10 μL of the reaction solution was added dropwise to P30 filter paper, washed 4 times with a 0.425% phosphoric acid solution and once with methanol, and then placed in a scintillation counter for detection. Gray analysis was performed on the results with Image J software, and IC50 values were calculated with GraphPad 5.0 software.

Axl (h) = target: T2, Axl (h) (Homo sapiens, UniProt P30530); assay: Enzymatic activity assay, Axl (h), [γ-33P]-ATP filter assay; type: biochemical; conditions: 10 μM ATP, 40 min room temperature; read-out: Inhibitory activity IC50 Axl(h)
T2 sequence (P30530 26-894): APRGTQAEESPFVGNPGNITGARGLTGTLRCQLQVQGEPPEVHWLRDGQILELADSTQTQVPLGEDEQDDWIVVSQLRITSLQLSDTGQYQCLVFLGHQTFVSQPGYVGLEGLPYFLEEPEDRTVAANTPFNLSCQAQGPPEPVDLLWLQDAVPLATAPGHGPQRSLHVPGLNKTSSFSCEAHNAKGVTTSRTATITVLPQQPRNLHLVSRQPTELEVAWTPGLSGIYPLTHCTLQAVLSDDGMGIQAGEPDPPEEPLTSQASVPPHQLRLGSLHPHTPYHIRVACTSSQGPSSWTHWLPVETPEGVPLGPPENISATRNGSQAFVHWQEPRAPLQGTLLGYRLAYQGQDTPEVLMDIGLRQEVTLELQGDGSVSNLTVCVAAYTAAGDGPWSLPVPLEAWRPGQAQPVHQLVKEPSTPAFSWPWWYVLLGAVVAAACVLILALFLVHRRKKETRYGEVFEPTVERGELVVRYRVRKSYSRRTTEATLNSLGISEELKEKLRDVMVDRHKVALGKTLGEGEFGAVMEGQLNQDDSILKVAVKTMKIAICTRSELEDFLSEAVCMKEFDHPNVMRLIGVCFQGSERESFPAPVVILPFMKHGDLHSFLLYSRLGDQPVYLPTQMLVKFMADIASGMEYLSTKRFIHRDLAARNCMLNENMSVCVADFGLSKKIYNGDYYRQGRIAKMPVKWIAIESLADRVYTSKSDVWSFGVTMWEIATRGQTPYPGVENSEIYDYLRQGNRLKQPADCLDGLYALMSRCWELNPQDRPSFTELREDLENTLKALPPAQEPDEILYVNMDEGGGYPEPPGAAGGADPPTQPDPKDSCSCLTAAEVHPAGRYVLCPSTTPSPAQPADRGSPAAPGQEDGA
Procedure: as §1, §2
An enzyme solution with a final concentration of 1.7 nM was prepared by dissolving Axl (h) enzyme in a mixture of 8 mM MOPS (pH 7.0), 0.2 mM EDTA and 250 μM KKSRGDYMTMQIG. A Mg/ATP mixture of 10 mM magnesium acetate and 10 μM [γ-^33P]-ATP was used to activate the enzymatic reaction.
as §3

SMILES	IC50 (Mer (h)) [nM]	IC50 (Axl (h)) [nM]
COc1cc2nccc(Oc3ccc(NC(=O)c4cn(C5CCOCC5)cc(-c5ccc(F)cc5)c4=O)nc3)c2cc1OC [Compound 27, N-(5-((6,7-dimethoxyquinolin-4-yl)oxy)pyridin-2-yl)-5-(4-fluorophenyl)-4-oxo-1-(tetrahydro-2H-pyran-4-yl)-1,4-dihydropyridin-3-carboxamide]	7	13
COc1cc2nccc(Oc3ccc(NC(=O)c4nn(C5CCOCC5)cc(-c5ccc(C)cc5)c4=O)cc3F)c2cc1OC [Compound 28]	1	23
Cc1ccc(-c2cn(C3CCOCC3)nc(C(=O)Nc3ccc(Oc4ccnc5cc6c(cc45)OCO6)cn3)c2=O)cc1 [Compound 29, N-(5-([1,3]dioxolo[4,5-g]quinolin-8-yloxy)pyridin-2-yl)-4-oxo-1-(tetrahydro-2H-pyran-4-yl)-5-(p-tolyl)-1,4-dihydropyridazin-3-carboxamide]	48	28
Cc1ccc(-c2cn(C3CCOCC3)nc(C(=O)Nc3ccc(Oc4ccnc5cc6c(cc45)OCCO6)cn3)c2=O)cc1 [Compound 30, N-(5-((2,3-dihydro-[1,4]dioxino[2,3-g]quinolin-9-yl)oxy)pyridin-2-yl)-4-oxo-1-(tetrahydro-2H-pyran-4-yl)-5-(p-tolyl)-1,4-dihydropyridazin-3-carboxamide]	20	39
COc1cc2nccc(Oc3cnc(NC(=O)c4cn(C5CCOCC5)cc(-c5ccc(F)cc5)c4=O)nc3)c2cc1OC [Compound 31, N-(5-((6,7-dimethoxyquinolin-4-yl)oxy)pyrimidin-2-yl)-5-(4-fluorophenyl)-4-oxo-1-(tetrahydro-2H-pyran-4-yl)-1,4-dihydropyridin-3-carboxamide]	8	15
COc1cc2nccc(Oc3ccc(NC(=O)c4cc(CC5CCOCC5)cn(-c5ccc(F)cc5)c4=O)nc3)c2cc1OC [Compound 32, N-(5-((6,7-dimethoxyquinolin-4-yl)oxy)pyridin-2-yl)-1-(4-fluorophenyl)-2-oxo-5-((tetrahydro-2H-pyran-4-yl)methy 1)-1,2-dihydropyridin-3-carboxamide]	12	31
COc1cc2nccc(Oc3cnc(NC(=O)c4nn(C5CCOCC5)cc(-c5ccc(F)cc5)c4=O)nc3)c2cc1OC [Compound 33, N-(5-((6,7-dimethoxyquinolin-4-yl)oxy)pyrimidin-2-yl)-5-(4-fluorophenyl)-4-oxo-1-(tetrahydro-2H-pyran-4-yl)-1,4-dihydropyridazin-3-carboxamide]	6	27
COc1cc2nccc(Oc3ccc(NC(=O)c4nn(C5CCOCC5)cc(-c5ccc(F)cc5)c4=O)nc3)c2cc1OC [Compound 34, N-(5-((6,7-dimethoxyquinolin-4-yl)oxy)pyridin-2-yl)-5-(4-fluorophenyl)-4-oxo-1-(tetrahydro-2H-pyran-4-yl)-1,4-dihydropyridazin-3-carboxamide]	2	29
